# Experimental data as given in patent publication US20090047310A1, “Use of a griffonia extract, in particular griffonia simplicifolia, in a cosmetic or dermatological composition for mitigating pigmentation of skin and skin appendages” (priority 2005, published 2009).
# Test system: Normal human melanocytes
# Test: Melanogenesis: quantity of melaninic pigments in cultured normal human melanocytes
# Format: cell-based
# Details: ten days culture
# Protocol: Normal human melanocytes are cultured for ten days in the absence and in the presence of non-cytotoxic quantities of the dry extract. The quantity of melaninic pigments is evaluated by extraction using 0.5 N soda and optical density measurement.
# The procedure is as before for the dry extract.
# The procedure is as before for the dry extract using 5-HTP extracted from the seeds of Griffonia simplicifolia.
smiles,measurement,setting,value
"N[C@@H](Cc1c[nH]c2ccc(O)cc12)C(=O)O [5-HTP, 5-hydroxytryptophan]","quantity of melanin produced by the melanocytes, % of the control","0.0016 mg/ml, p less than 0.05",93%
same,"quantity of melanin produced by the melanocytes, % of the control","0.008 mg/ml, p less than 0.01",89%
same,"quantity of melanin produced by the melanocytes, % of the control","0.04 mg/ml, p less than 0.01",80%
